≈ marks a conversion by molar mass, not a printed value. Like-named read-outs stand apart in the source and are kept apart here. Where only a bound is given, the exact number is not on record here.

Experiment [1] relates to Mycobacterium tuberculosis. The note with it: Ashtekar et al. 1993; cited from earlier work.
Experiment [2] deals with Mycobacterium bovis BCG (recombinant strain). Description: microbe, parasite or virus in culture. The format is cell-based. The note with it: Mycobacterium tuberculosis variant bovis BCG, BCG, 144 h; 6 days 37° C.; read-out: MIC, column A, 3(S) compounds.
Experiment [3] deals with Mycobacterium tuberculosis H37Rv (sensitive strain). Kind of experiment: MIC as determined by the BACTEC method, sensitive strain. The note with it: M. tuberculosis H37Rv (sensitive strain), read-out: MIC, column B, 3(S) compounds. The format is cell-based.
Experiment [4] concerns Clostridium difficile ATCC 17857. Description: In vitro inhibition of Clostridium difficile (Oxyrase broth microdilution MIC). The format is cell-based. The following applies: Clostridioides difficile, ATCC17857; Clostridium difficile ATCC 17857, Oxyrase broth; read-out: MIC, column D, 3(S) compounds. On the technique in general: Broth dilution looks for growth in wells or tubes with falling amounts of substance.

Experiment [5] deals with Mycobacterium bovis (rBCG). The format is in vivo. The note with it: 10 days.
Experiment [6] relates to Helicobacter felis. Kind of experiment: In vivo activity against Helicobacter felis in mice (urease test of stomach biopsy). Details: species or system in female CD-1 mice. The following applies: 50 mg/kg three times daily oral gavage, CM-2, four days; vehicle and untreated 100. As to the method:
Female CD-1 mice weighing 30 grams were infected by oral gavage with 10^8 -10^9 colony forming units of H. felis. This infection process was repeated two, and four days, thereafter. Colonization of the stomach was allowed to occur over a seven day period. Animals were segregated into groups of five, and were treated three times daily by oral gavage with 50 mg/kg of test drugs prepared in the CM-2 formulation vehicle (Example 52). Treatment continued for four days. One group of animals received an equal volume of formulation vehicle alone, to ensure that the vehicle had no effect on the Helicobacter infection. A separate untreated control group was also included.
All animals were then sacrificed, the stomachs were removed, opened, and the contents washed out. A five millimeter diameter biopsy was removed, and transferred to a urease test solution containing a pH-sensitive dye, which was then incubated at 37° C. incubator for 24 hours. A blue or purple coloration in this test solution signifies a positive reaction, indicating the continued presence of viable Helicobacter bacteria; a negative result is indicated by a yellow coloration. Viable Helicobacter bacteria produce a urease enzyme which converts urea, of which there is an abundant supply in the stomach (from saliva and gastric juices), into bicarbonate and ammonia, which are strong bases. This mechanism is considered to provide conditions more amenable to the survival of Helicobacter in the otherwise acidic conditions prevalent in the stomach.

In experiment [7] the test system is Helicobacter pylori. Kind of experiment: In vitro inhibition of Helicobacter pylori (broth microdilution MIC). The note with it: Helicobacter pylori.
The subject of experiment [8] is Helicobacter pylori Strain 4187E. Kind of experiment: In vivo activity against Helicobacter pylori strain 4187E in mice. The following applies: oral gavage, four days. Details: species or system in outbred female white mice. The source says:
Outbred female white mice (20 grams) were infected by oral gavage with 10^7 -10^8 colony forming units of H. pylori strain 4187E (originally isolated from a patient with a duodenal ulcer). […] Treatment continued for four days. Clarithromycin, administered at the same concentration and for the same duration, was included as a positive control. One group of animals also received an equal volume of formulation vehicle alone, to provide a negative control.
Five days after cessation of treatment, all animals were sacrificed, the stomachs were removed, opened, and the contents washed out. The entire mucosal surface was then spread evenly over the surface of an agar plate containing antibiotics appropriate for the prevention of growth of microorganisms other than Helicobacter spp. After seven days incubation under microaeropilic conditions at 37° C., culture plates were evaluated for bacterial growth.

Experiment [9] concerns Mycobacterium tuberculosis (rMTB). Description: In vivo antimycobacterial activity against M. tuberculosis (rMTB) in spleens of mice. The note with it: 25 mg/kg daily oral gavage, CM-2, 10 days, control 422,866 (PA-824, 636, 1297) or 362,274 (others). Also on record: species or system Mycobacterium tuberculosis Erdman, in female BALB/c mice.
Experiment [10] shares this test system. Description: In vivo antimycobacterial activity against M. tuberculosis (rMTB) in lungs of mice. Also on record: species or system Mycobacterium tuberculosis Erdman, in female BALB/c mice. The following applies: 25 mg/kg daily oral gavage, CM-2, 10 days, control 117,258 (PA-824, 636, 1297) or 22,751 (others).
Setting [11] is: 72 h, read-out: MIC against Helicobacter pylori, strain 17 (Table 5A).
[12] abbreviates: 72 h, read-out: MIC against Helicobacter pylori, strain 19 (Table 5A).
The mark [13] stands for this setting: 72 h, read-out: MIC against Helicobacter pylori, strain 20 (Table 5A).
The mark [14] stands for this setting: 72 h, read-out: MIC against Helicobacter pylori, strain 40 (Table 5A).
[15] abbreviates: 72 h, read-out: MIC against Helicobacter pylori, strain 43 (Table 5A).
Setting [16] is: 72 h, read-out: MIC against Helicobacter pylori, strain 76 (Table 5A).
The mark [17] stands for this setting: ATCC43504, 72 h, read-out: MIC against Helicobacter pylori, strain ATCC 43504 (Table 5A).

On to `CCC1Cn2cc([N+](=O)[O-])nc2O1` (centres unmarked) [CGI 17341, 2-ethyl-5-nitro-2,3-dihydro[2,1-b]imidazo-oxazole], for which, in experiment [1], the “activity against Mycobacterium tuberculosis” value is recorded as “exhibit activity against Mycobacterium tuberculosis”.
In the case of `CC(C)=CCC/C(C)=C/CO[C@@H]1COc2nc([N+](=O)[O-])cn2C1` [PA-626], the MIC is 0.5 µg/mL (≈ 1.56 µM) in experiment [2], 0.13 µg/mL (≈ 0.405 µM) in experiment [3] and 0.8 µg/mL (≈ 2.49 µM) in experiment [4].
As to `O=[N+]([O-])c1cn2c(n1)OC[C@@H](OCc1ccc(OCc3ccccc3)cc1)C2` [PA-647], the MIC in experiment [2] was 0.03 µg/mL (≈ 0.0787 µM); in experiment [3], 0.03 µg/mL (≈ 0.0787 µM); in [4], 12.5 µg/mL (≈ 32.8 µM); in experiment [7] (setting [11]) it was above 25 µg/mL; in experiment [7] (setting [12]), 0.2 µg/mL (≈ 0.524 µM); in [7] (setting [13]) it was 0.2 µg/mL (≈ 0.524 µM). Also, the MIC in [7] (setting [14]) is 0.4 µg/mL (≈ 1.05 µM); in experiment [7] (setting [15]), 0.4 µg/mL (≈ 1.05 µM); in experiment [7] (setting [16]), 3.12 µg/mL (≈ 8.18 µM); in experiment [7] (setting [17]) it was above 25 µg/mL. Also, in experiment [5], the “Average RLUs, M. bovis (rBCG) in spleens” value is 19,916 RLUs. The “% Survival” value in [6] came to 100%.
Take `CC(C)(C)c1ccc(CO[C@@H]2COc3nc([N+](=O)[O-])cn3C2)cc1` [PA-653]: the MIC in experiment [2] turned out to be 0.06 µg/mL (≈ 0.181 µM); in experiment [3] it was 0.03 µg/mL (≈ 0.0905 µM); in experiment [4], 3.12 µg/mL (≈ 9.42 µM). In addition, the “Average RLUs, M. bovis (rBCG) in spleens” value in [5] is on record as 229,080 RLUs.
On to `CCCCc1ccc(CO[C@@H]2COc3nc([N+](=O)[O-])cn3C2)cc1` [PA-822], for which the MIC in experiment [2] amounted to 0.06 µg/mL (≈ 0.181 µM); in [4], 12.5 µg/mL (≈ 37.7 µM); in [7] (setting [11]), 25 µg/mL (≈ 75.4 µM); in [7] (setting [12]), 0.2 µg/mL (≈ 0.604 µM); in experiment [7] (setting [13]) it was 0.2 µg/mL (≈ 0.604 µM); in experiment [7] (setting [14]) it was 0.2 µg/mL (≈ 0.604 µM). In addition, the values for the MIC in [7] (setting [15]), in [7] (setting [16]) and in experiment [7] (setting [17]) were 0.4 µg/mL (≈ 1.21 µM), 6.25 µg/mL (≈ 18.9 µM) and above 25 µg/mL, respectively. Moreover, the “% Eradication” value in [8] (once daily 25 mg/kg), in [8] (twice daily 5 mg/kg) and in [8] (twice daily 50 mg/kg) was 0% in each case. Further, in experiment [6], the “% Survival” value is reported as 100%.
Turning to `O=C(Nc1ccc(OC(F)(F)F)cc1)O[C@@H]1COc2nc([N+](=O)[O-])cn2C1` [PA-1297, 4-(Trifluoromethoxy)phenyl Carbamate of 3S Hydroxy-6-nitro-2H-3,4-dihydo-[2-1b]imidazopyran], the MIC in experiment [2] was 0.015 µg/mL (≈ 0.0386 µM); in experiment [4], 0.78 µg/mL (≈ 2.01 µM). In addition, the “Average RLUs, M. tuberculosis (rMTB) in spleens” value in experiment [9] is reported as 66,473 RLUs. The “Average RLUs, M. tuberculosis (rMTB) in lungs” value in experiment [10] is 3,354 RLUs. Moreover, the “% Eradication” value in [8] (once daily 25 mg/kg), in experiment [8] (twice daily 5 mg/kg) and in experiment [8] (twice daily 50 mg/kg) was 0% each time. Moreover, in [6], the “% Survival” value amounted to 100%.
Take `O=C(N[C@@H]1COc2nc([N+](=O)[O-])cn2C1)OCc1ccc(OC(F)(F)F)cc1` [PA-1343]: the MIC in experiment [2] amounted to 0.015 µg/mL (≈ 0.0373 µM); in [7] (72 h, read-out: MIC against Helicobacter pylori, strain B40, Met-S, Clar-S (Table 5B)), 0.8 µg/mL (≈ 1.99 µM); in experiment [7] (72 h, read-out: MIC against Helicobacter pylori, strain B76, Met-R, Clar-S (Table 5B)), 12 µg/mL (≈ 29.8 µM); in [7] (72 h, read-out: MIC against Helicobacter pylori, strain C1649, Met-R, Clar-R (Table 5B)), 12 µg/mL (≈ 29.8 µM); in experiment [7] (72 h, read-out: MIC against Helicobacter pylori, strain C11403, Met-S, Clar-R (Table 5B)), 1.5 µg/mL (≈ 3.73 µM); in experiment [7] (72 h, read-out: MIC against Helicobacter pylori, strain C19765 (Table 5B)), 12 µg/mL (≈ 29.8 µM). Besides, the MIC amounted to 3 µg/mL (≈ 7.46 µM) in experiment [7] (72 h, read-out: MIC against Helicobacter pylori, strain RD26, Met-S, Clar-S (Table 5B)); 2 µg/mL (≈ 4.97 µM) in [7] (72 h, read-out: MIC against Helicobacter pylori, strain rd26, Met-S, Clar-S (Table 5B)); 10 µg/mL (≈ 24.9 µM) in [7] (ATCC43504, 72 h, read-out: MIC against Helicobacter pylori, strain ATCC 43504, Met-R, Clar-S (Table 5B)); 12 µg/mL (≈ 29.8 µM) in experiment [7] (ATCC43526, 72 h, read-out: MIC against Helicobacter pylori, strain ATCC 43526, Met-R, Clar-S (Table 5B)); 1.5 µg/mL (≈ 3.73 µM) in experiment [7] (ATCC43579, 72 h, read-out: MIC against Helicobacter pylori, strain ATCC 43579, Met-S, Clar-S (Table 5B)); 3 µg/mL (≈ 7.46 µM) in [7] (ATCC43629, 72 h, read-out: MIC against Helicobacter pylori, strain ATCC 43629, Met-S, Clar-S (Table 5B)). In addition, in experiment [9], the “Average RLUs, M. tuberculosis (rMTB) in spleens” value is 51,928 RLUs. Besides, the “Average RLUs, M. tuberculosis (rMTB) in lungs” value in experiment [10] turned out to be 606 RLUs. In experiment [6], the “% Survival” value is 00%.

These data come from patent publication US6087358A (priority 1997, dated 2000).
